This test deals with T1, Cysteinyl leukotriene receptor 1 (Cavia porcellus, UniProt Q2NNR5).
T1 sequence (Q2NNR5 whole entry): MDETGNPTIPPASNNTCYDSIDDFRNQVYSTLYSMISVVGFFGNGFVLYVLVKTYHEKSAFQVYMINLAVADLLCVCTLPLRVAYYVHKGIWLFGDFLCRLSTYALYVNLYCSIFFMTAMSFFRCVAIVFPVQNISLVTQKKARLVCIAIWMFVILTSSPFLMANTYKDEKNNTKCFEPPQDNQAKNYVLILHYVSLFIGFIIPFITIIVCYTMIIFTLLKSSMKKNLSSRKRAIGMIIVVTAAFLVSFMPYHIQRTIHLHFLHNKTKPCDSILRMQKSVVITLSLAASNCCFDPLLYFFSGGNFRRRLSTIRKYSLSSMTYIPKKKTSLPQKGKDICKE
Briefly: ChEBML_52039. As for the experimental part: Dissociation constant for CysLT1 receptor was determined by the displacement of [3H]LTD4 from guinea pig lung membranes

The results in this text go back to BindingDB's records for doi:10.1016/S0960-894X(97)00219-9 (1997).

The Kd is a measure of binding affinity in units of concentration. A high value points to a looser complex. With `COc1cc(C(=O)NS(=O)(=O)c2ccccc2)ccc1Cn1ncc2ccc(NC(=O)OC3CCCC3)cc21`, the Kd worked out at 30.1 µM.
